One may read the mortality as the percentage killed. Low readings indicate a weak lethal effect, high ones a strong lethal effect.

Structures are written as SMILES.

Common to all, as to type: in vivo
Data set [1] has as its system housefly (Musca domestica). Kind of data set: Test Method 8: housefly female adults, coated glass vial. To be noted: 40 mg/m^2 coated vial, 1 day. On the procedure:
An acetone solution which is adjusted to 800 ppm of each test compound is poured into a 20 mL glass vial, and the test compound is coated uniformly on inner face of the vial so as to 40 mg/m^2 of the test compound treated, and the vial is then dried.
5 housefly (Musca domestica) female adults are released into the treated vial, and the vial is then covered with lid. After the prescribed time, the state of the housefly is examined, and the mortality is calculated by the following equation.
(§1) Mortality(%)=(Number of dead insects/Number of tested insects)×100

Data set [2] has as its system cotton worm (Spodoptera litura). Put plainly: Test Method 3: cotton worm, sprayed cabbage seedling, second-instar larvae. The note with it: 500 ppm, spray 20 mL/seedling, 5 days. On the procedure:
(§2) Each test compound is made to a formulation according to a similar method to that described in the Formulation Example 1, and thereto is added water containing 0.03 v/v % of Shindain (registered trademark) to prepare a diluted solution containing a prescribed concentration of the test compound.
(§3) Cabbage (Brassicae oleracea) seedling (on the developmental stage of the second to third true leaf) is planted in a container, and the diluted solutions are sprayed to the seedling at a ratio of 20 mL/seedling. Thereafter, the aerial part of the seedling is cut out and then is installed into a container in which a filter paper is placed at the bottom of the container. Five of second-instar larvae of cotton worm (Spodoptera litura) are released into the container. After 5 days, the number of the surviving insects is counted, and the mortality of insects is calculated by the following equation.
(§4) Mortality(%)=(1−Number of surviving insects/5)×100

The test system of data set [3] is cotton aphids (Aphis gossypii). Kind of data set: Test Method 11: cotton aphid, foliar spray on cucumber seedling (Formulation Example 5). The note with it: 200 ppm; foliar spray 10 mL/seedling; 5 days after spraying. On the procedure: Each test compound is made to a formulation according to a similar method to that described in the Formulation Example 5, and thereto is added water containing 0.03 v/v % of Shindain (registered trademark) to prepare a diluted solution containing a prescribed concentration of the test compound.
(§5) Cucumber (Cucumis sativus) seedling (on the developmental stage of the second true leaf) is planted in a container and approximately 30 cotton aphids (Aphis gossypii) (all developmental stages of life) are released onto the leaves of the cucumber. After 1 day, the diluted solutions are sprayed to the seedling at a ratio of 10 mL/seedling. Further, after 5 days, the number of the surviving insects is examined and the controlling value is calculated by the following equation.
Controlling value (%)={1−(Cb×Tai)/(Cai×)}×100
wherein the symbols in the formula represent the following descriptions. • Cb: Number of the test insects in untreated group; • Cai: Number of the surviving insects at the time of the investigation in untreated group; • Tb: Number of the test insects in treated group; • Tai: Number of the surviving insects at the time of the investigation in treated group; • Here the “untreated group” represents a group where the similar treatment procedure to that of the treated group except not using the test compound is done.

Data set [4] relates to cotton aphids (Aphis gossypii). Kind of data set: Test Method 1: cotton aphid, foliar spray on cucumber seedling (Formulation Example 1). The note with it: 500 ppm; foliar spray 10 mL/seedling; 5 days after spraying. On the procedure:
as §2, §5
Controlling value(%)={1−(Cb×Tai)/(Cai×Tb)}×100
wherein the symbols in the formula represent the following descriptions. • Cb: Number of the test insects in untreated group; • Cai: Number of the surviving insects at the time of the investigation in untreated group; • Tb: Number of the test insects in treated group; • Tai: Number of the surviving insects at the time of the investigation in treated group;
Here the “untreated group” represents a group where the similar treatment procedure to that of the treated group except not using the test compound is done.

In data set [5] the test system is Western corn rootworm (Diabrotica virgifera virgifera). Kind of data set: Test Method 5: Western corn rootworm, immersed corn seedling. To be noted: 200 ppm; corn seedling immersed 30 seconds; second-instar larvae; 5 days. As for the experimental part: Each 1 mg of the test compounds is dissolved in 50 μL of a mixed solution consisting of 5% of polyoxyethylene sorbitan mono-cocoate and 95% of acetone by volume ratio. Thereto is added water containing 0.03% by volume of Shindain (registered trademark) to prepare a diluted solution containing a prescribed concentration of the test compound.
A young seedling of corn (Zea mays) is immersed into the diluted solution for 30 seconds. Thereafter, two seedlings are installed in a plastic petri dish ([…]), and 10 of second-instar larvae of Western corn rootworm (Diabrotica virgifera virgifera) are released into the dish. After 5 days, the number of the dead insects is counted, and the mortality of insects is calculated by the following equation.
Mortality(%)=(Number of dead insects/10)×100

In data set [6] the test system is diamondback moth (Plutella xylostella). Put plainly: Test Method 4: diamondback moth, sprayed cabbage seedling, second-instar larvae. To be noted: 500 ppm, spray 20 mL/seedling, 5 days. On the procedure:
as §2
as §3, with “diamondback moth (Plutella xylostella)” for “cotton worm (Spodoptera litura)”
as §4

Data set [7] has as its system common house mosquito (Culex pipiens pallens). Kind of data set: Test Method 12: common house mosquito larvae in diluted solution. To be noted: 3.5 ppm; last instar larvae; 1 day. On the procedure: Each test compound is formulated to a test formulation according to a similar method to that described in the Formulation Example 1, and water is added in preparing for a diluted solution containing a prescribed concentration of the test compound.
Into the diluted solution, 30 last instar larvae of common house mosquito (Culex pipiens pallens) are released, and after 1 day, the state of the house mosquito larvae is examined, and the mortality is calculated by the following equation.
as §1

For `CCS(=O)(=O)c1cc(-c2ccc(Cl)cc2)cnc1N1CCn2nc(C(F)(F)F)cc2C1=O` [compound 11], the mortality in data set [1], in data set [2], in data set [5] and in data set [6] was not below 80% throughout. For the same compound, the controlling value in data set [3] and in data set [4] was not below 90% throughout.

Turning to `CCS(=O)(=O)c1cc(C2CC2)cnc1N1CCn2nc(OC(F)F)cc2C1=O` [compound 6], the mortality is not below 80% in data set [2], “greater than 90%” in data set [7], not below 80% in data set [5] and not below 80% in data set [6]. For the same compound, the controlling value in data set [3] and in data set [4] was not below 90% throughout.

With `CCS(=O)(=O)c1c(N2CCn3nc(OC(F)F)cc3C2=O)nc2ccc(I)cn12` [compound 3], the mortality in data set [1] is not below 80%; in data set [2] it was not below 80%; in data set [7] it was “greater than 90%”; in data set [5], not below 80%; in data set [6], not below 80%. In data set [3], this compound displayed a controlling value not below 90%.

Take `CCS(=O)(=O)c1cc(Br)cnc1N1CCn2nc(C(F)(F)F)cc2C1=O` [compound 7]: the figures for the mortality entry in data set [7] and in data set [5] were “greater than 90%” and not below 80%, respectively. The controlling value in data set [3] and in data set [4] was not below 90% in each case.

As for `CCS(=O)(=O)c1cc(-c2ccc(F)cc2)cnc1N1CCn2nc(OC(F)F)cc2C1=O` [compound 19], the mortality in data set [2] is on record as not below 80%; in data set [7], “greater than 90%”. Also, the controlling value in data set [3] and in data set [4] was not below 90% in each case.

On to `CCS(=O)(=O)c1cc(-c2cc(Cl)cc(Cl)c2)cnc1N1CCn2nc(C(F)(F)F)cc2C1=O` [compound 13], for which the values for the mortality in data set [2], in data set [7] and in data set [6] were not below 80%, “greater than 90%” and not below 80%, respectively. This compound also registered a controlling value in data set [4] not below 90%.

Take `CCS(=O)(=O)c1cc(-c2ccc(Cl)cc2)cnc1N1CCn2nc(OC(F)F)cc2C1=O` [compound 16]: in data set [3], the controlling value was not below 90%.

With `CCS(=O)(=O)c1cc(-c2cc(Cl)ccn2)cnc1N1CCn2nc(C(F)(F)F)cc2C1=O` [compound 27], the figures for the mortality entry in data set [7] and in data set [6] were “greater than 90%” and not below 80%, respectively.

On to `CCS(=O)(=O)c1cc(-c2ccc(F)cc2)cnc1N1CCn2nc(C(F)(F)F)cc2C1=O` [compound 9], for which the mortality in data set [2], in data set [5] and in data set [6] was not below 80% each time. The controlling value in data set [3] and in data set [4] was not below 90% in each case.

Take `CCS(=O)(=O)c1c(N2CCn3nc(Br)cc3C2=O)nc2ccc(I)cn12` [compound 46]: the controlling value in data set [3] was not below 90%.

As to `CCS(=O)(=O)c1cc(Br)cnc1N1CCn2nc(OC(F)F)cc2C1=O` [compound 8], the controlling value in data set [3] and in data set [4] was not below 90% each time. The same compound showed a mortality in data set [6] not below 80%.

As for `CCS(=O)(=O)c1cc(-c2cccc(C#N)n2)cnc1N1CCn2nc(C(F)(F)F)cc2C1=O` [compound 23], in data set [7], the mortality entry is reported as “greater than 90%”. The compound also showed a controlling value in data set [4] not below 90%.

The record behind these values is patent US20260363245A1, “HETEROCYCLIC COMPOUND AND HARMFUL ARTHROPOD CONTROL COMPOSITION CONTAINING SAME” (SUMITOMO CHEMICAL COMPANY, LIMITED, priority 2022, published 2026).
